In the supplement of paper PMC11061612:

Tests used:
[1] = test system: JVM-3 (B-Cell Non-Hodgkin's Lymphoma); test: combination Emax (second highest fraction inhibited in the dose matrix, 72 h); higher = more inhibition; extreme values may be limits of the assay
In short: (§1)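 Cell lines grown in DMEM/F12 or RPMI with 10% FBS were plated in 1536-well plates and held 24 hours at 37°C, 5% CO2 before 72 hours of exposure to two-drug dose matrices, with DMSO typically at 0.2%. CellTiter-Glo 2.0 luminescence gave viability, which was converted to inhibition. Vehicle wells were set to 0 and blank wells to 1. Combination Emax is the second-highest inhibition in the matrix, and Bliss excess is the observed combination effect minus the expected EA + EB − EA·EB, where EA and EB are the single-agent effects.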

[2] = test system: HSC-4 (Oral Cavity Carcinoma); test: as above
In short: as §1

[3] = test system: BT-549 (Breast Carcinoma); test: as above
In short: as §1

[4] = test system: JVM-3 (B-Cell Non-Hodgkin's Lymphoma); test: Bliss excess, mean over the matrix (fraction); higher = more synergy
In short: as §1
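For Bliss excess, mean over the matrix in this document: after 72 h of two-drug dosing.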

With `Cc1c2c(nn1C)CSCc1cc(n(C)n1)CSc1cc(c3ccccc3c1)OCCCc1c(C(=O)O)n(C)c3c-2c(Cl)ccc13` [AZD5991] + C1CN(CCC1(C(=O)N[C@@H](CCO)C2=CC=C(C=C2)Cl)N)C3=NC=NC4=C3C=CN4 [Capivasertib] (first compound max 1 µM, 7x7, partner max 3 µM) the “combination Emax” value [1] was 0.544, the “combination Emax” value [2] was 0.42 and the “combination Emax” value [3] was 0.432. The Bliss excess [4] was -0.0363.

For `Cc1c2c(nn1C)CSCc1cc(n(C)n1)CSc1cc(c3ccccc3c1)OCCCc1c(C(=O)O)n(C)c3c-2c(Cl)ccc13` [AZD5991] + C=CCn1c(=O)c2cnc(Nc3ccc(N4CCN(C)CC4)cc3)nc2n1-c1cccc(C(C)(C)O)n1 [AZD1775] (first compound max 1 µM, partner max 1 µM), the “combination Emax” value [1] was 0.92, the “combination Emax” value [2] was 0.507 and the “combination Emax” value [3] was 0.811. It also gave a Bliss excess [4] of -0.0884.

In the case of `Cc1c2c(nn1C)CSCc1cc(n(C)n1)CSc1cc(c3ccccc3c1)OCCCc1c(C(=O)O)n(C)c3c-2c(Cl)ccc13` [AZD5991] + CC1(C)CCC(CN2CCN(c3ccc(C(=O)NS(=O)(=O)c4ccc(NCC5CCOCC5)c([N+](=O)[O-])c4)c(Oc4cnc5[nH]ccc5c4)c3)CC2)=C(c2ccc(Cl)cc2)C1 [Venetoclax] (first compound max 1 µM, 7x7, partner max 1 µM), the “combination Emax” value [1] is reported as 0.764, the “combination Emax” value [2] is reported as 0.142 and the “combination Emax” value [3] is reported as 0.45. It also gave a Bliss excess [4] of 0.146.

For `Cc1c2c(nn1C)CSCc1cc(n(C)n1)CSc1cc(c3ccccc3c1)OCCCc1c(C(=O)O)n(C)c3c-2c(Cl)ccc13` [AZD5991] + CCN(CCO)CCCOc1ccc2c(Nc3cc(CC(=O)Nc4cccc(F)c4)[nH]n3)ncnc2c1 [AZD2811] (first compound max 1 µM, 7x7, partner max 1 µM), the “combination Emax” value [1] was 0.486, the “combination Emax” value [2] was 0.404 and the “combination Emax” value [3] was 0.575. For the same molecule, the Bliss excess [4] was 0.0892.

With `Cc1c2c(nn1C)CSCc1cc(n(C)n1)CSc1cc(c3ccccc3c1)OCCCc1c(C(=O)O)n(C)c3c-2c(Cl)ccc13` [AZD5991] + CN(C)CCCOc1ccc(-c2ccc3ncc4c(c3c2)n(C2CCOCC2)c(=O)n4C)cn1 [AZD0156] (first compound max 1 µM, 7x7, partner max 1 µM) the “combination Emax” value [1] was 0.509, the “combination Emax” value [2] was 0.197 and the “combination Emax” value [3] was 0.334. The Bliss excess [4] was -0.0613.

For `Cc1c2c(nn1C)CSCc1cc(n(C)n1)CSc1cc(c3ccccc3c1)OCCCc1c(C(=O)O)n(C)c3c-2c(Cl)ccc13` [AZD5991] + C[C@@H]1COCCN1C2=NC(=NC(=C2)C3(CC3)[S@](=N)(=O)C)C4=C5C=CNC5=NC=C4 [AZD6738] (first compound max 1 µM, 7x7, partner max 10 µM), the “combination Emax” value [1] was 0.713, the “combination Emax” value [2] was 0.678 and the “combination Emax” value [3] was 0.659. For the same molecule, the Bliss excess [4] was -0.0642.

With `Cc1c2c(nn1C)CSCc1cc(n(C)n1)CSc1cc(c3ccccc3c1)OCCCc1c(C(=O)O)n(C)c3c-2c(Cl)ccc13` [AZD5991] + C[C@@H](Nc1cc(F)cc(F)c1)c1cc(C(=O)N(C)C)cc2c(=O)cc(N3CCOCC3)oc12 [AZD8186] (first compound max 1 µM, 7x7, partner max 3 µM) the “combination Emax” value [1] was 0.44, the “combination Emax” value [2] was 0.24 and the “combination Emax” value [3] was 0.476. For the same molecule, the Bliss excess [4] was -0.0119.

`Cc1c2c(nn1C)CSCc1cc(n(C)n1)CSc1cc(c3ccccc3c1)OCCCc1c(C(=O)O)n(C)c3c-2c(Cl)ccc13` [AZD5991] + Cc1cc2ncnn2cc1Nc1ncc2c(n1)n(C1CCOCC1)c(=O)n2C [AZD7648] (first compound max 1 µM, 7x7, partner max 10 µM) was tested, and the “combination Emax” value [1] was 0.498, the “combination Emax” value [2] was 0.171 and the “combination Emax” value [3] was 0.329. For the same molecule, the Bliss excess [4] was -0.0539.

In the case of `Cc1c2c(nn1C)CSCc1cc(n(C)n1)CSc1cc(c3ccccc3c1)OCCCc1c(C(=O)O)n(C)c3c-2c(Cl)ccc13` [AZD5991] + Cn1cnc2c(F)c(Nc3ccc(Br)cc3Cl)c(C(=O)NOCCO)cc21 [Selumetinib] (first compound max 1 µM, 7x7, partner max 3 µM), the “combination Emax” value [1] is reported as 0.472, the “combination Emax” value [2] is reported as 0.278 and the “combination Emax” value [3] is reported as 0.258. For the same molecule, the Bliss excess [4] was -0.0296.

`C[C@@H]1COCCN1c1cc(C2([S@](C)(=N)=O)CC2)nc(-c2ccnc3[nH]ccc23)n1` [AZD6738] + O=C(c1cc(Cc2n[nH]c(=O)c3ccccc23)ccc1F)N1CCN(C(=O)C2CC2)CC1 [Olaparib] (first compound max 10 µM, 7x7, partner max 10 µM) was tested, and the “combination Emax” value [1] was 0.704, the “combination Emax” value [2] was 0.691 and the “combination Emax” value [3] was 0.446. The Bliss excess [4] was -0.0937.
